Test results: patent US20030092037A1, “Elk1 phosphorylation related gene” (priority 2001, published 2003)

Tested on: MAP kinase cascade activating protein according to SEQ ID NO: 4, 6, 12, 16, 18, 22, 26, 28, 30, 44, 50, 52, 60, 68, 72, 104, 110, 112, 116, 122, 132, 142, 146 …
Experiment: Screening for inhibitors in 293-EBNA reporter systems expressing MAP kinase cascade activating proteins
Format: cell-based, human
Conditions: compound 10 μM; 50 ng expression plasmid; 24 hours; all 27 SEQ ID NO systems
Procedure: (in the presence of 5% CO2). Then, using FuGENE6 (Roche), 50 ng of each of the expression plasmids obtained in Example 2 above which comprise a gene encoding the MAP kinase cascade activating protein according to SEQ ID NO: 4, 6, 12, 16, 18, 22, 26, 28, 30, 44, 50, 52, 60, 68, 72, 104, 110, 112, 116, 122, 132, 142, 146, 148, 150, 152 or 154 were respectively co-transfected in a well with 60 ng of pFR-Luc ([…]), 0.25 ng of pFA2-Elk1 ([…]), 5 ng of pcDNA 3.1 (+) (INVITROGEN) into which human p38 gene had been incorporated and 30 ng of pcDNA 3.1 (+) (INVITROGEN) into which human JNJ1 β 1 gene had been incorporated. The method used for introduction was in accordance with the attached protocol. After culturing for 2 hours at 37° C., any one of 1000 types of compound that were held in stock, was added to a final concentration of 10 μM per well, and after further culturing for 24 hours at 37° C., reporter activity, which reflects MAP kinase cascade activition, was measured by Picagene LT2 (purchased from Toyo Ink Manufacturing) in accordance with the manufacturer's instructions. Using a well to which no compound was added as a control, compounds were screened to identify a compound which reduced reporter activity in the well to which it was added to 50% or lower. […]

SMILES: CN[C@@H]1C[C@H]2O[C@@](C)([C@@H]1OC)n1c3ccccc3c3c4c(c5c6ccccc6n2c5c31)C(=O)NC4 [staurosporine]
- reporter activity relative to control well to which no compound was added: ≤ 50%
